Consider 4 compounds from patent US10653674B2, “Multisubstituted aromatic compounds as inhibitors of thrombin” (VERSEON CORPORATION, priority 2010, dated 2020).

The target in one data set is T1, Human thrombin (Homo sapiens, UniProt P00734).
T1 construct: purchased Haematologic Technologies Inc
The experiment in a line: Thrombin protease inhibition assay, chromogenic substrate S-2238. It counts as biochemical. To be noted: inhibition of the protease activity of thrombin, Table A. The protocol:
Compounds described herein can be assayed, by a variety of methods known in the art and described herein, for inhibition of biological activity, e.g., protease activity, of a variety of proteins, e.g., thrombin.
The thrombin activity reported herein (e.g., Table A) was obtained as follows. […] Thrombin was assayed in buffer containing 0.05 M Tris (pH 7.4), 0.015 M NaCl and 0.01% PEG-8000. The final concentration of enzyme used was 3 nM thrombin. […] All assays were performed in 96-well microtiter plates at room temperature (RT). […] Inhibitor IC50 values were determined by adding test compound as ten point, three-fold serial dilutions in buffer solution, as known in the art. The plate was read at 10 minutes after substrate addition. The IC50 was calculated by plotting the percent (%) inhibition against compound concentration and fitting the data to a constrained four parameter sigmoidal curve, as known in the art.

The next data set has as its system malignant breast tumors. To be noted: cited from earlier work.

pIC50: −log10 of the molar value.

By melting point is commonly meant the temperature of the solid-liquid transition. `Fc1ccc(CNc2nc(-c3cccnc3)n[nH]2)cc1` [Cmpd 4] showed a melting point of 185 to 186 °C.

The pIC50 is −log10 of the IC50, conventionally taken in molar units. Higher therefore signals a small IC50. As for `CN(C)C(=O)c1n[nH]c(C(=O)Nc2ccccc2Cl)n1` [Cmpd 186, 5-C-(2-chlorobenzene)-3-N,3-N-dimethyl-1H-1,2,4-triazole-3,5-dicarboxamide], at Human thrombin, the negative logarithm of the IC50 (pIC50) was less than 6.00. As for `CNC(=O)c1n[nH]c(C(=O)Nc2ccccc2Cl)n1` [Cmpd 187, 5-C-(2-chlorobenzene)-3-N-methyl-1H-1,2,4-triazole-3,5-dicarboxamide], the negative-log IC50 (pIC50) against Human thrombin is less than 6.00. For the compound `CCCCCCOC(=O)NC(=N)c1ccc(NCc2nc3cc(C(=O)N(CCC(=O)OCC)c4ccccn4)ccc3n2C)cc1` [dabigatran etexilate], in the data set with malignant breast tumors (at 4 weeks, treated mice), the “reduction in tumor volume” value was 50%. The “weight loss in treated mice” value with malignant breast tumors (at 4 weeks) is “no weight loss”. Besides, the “reduction of tumor cells in the blood and liver micrometastases” value with malignant breast tumors (mouse, in vivo) is reported as 50-60%.
